According to patent US9012655B2, “Antimicrobial/adjuvant compounds and methods” (Denouamed, Inc., priority 2011, dated 2015):
Converted amounts (≈) assume the structure as drawn.

What was measured:
Assay in all cases: MIC panel of challenge pathogens (CLSI)
Format in all cases: cell-based
[1] = system: Bacillus cereus NCTC6349; conditions: Bacillus cereus NCTC6349; for MIC: read-out: 100% inhibition; for MIC50: read-out: MIC50 (50%); for MIC80: read-out: MIC80 (80%)
Protocol: (§1) The inocula for each bacterial strain were prepared by picking 5-10 distinct colonies from the culture plates and suspending them in the appropriate broth as per Clinical and Laboratory Standards Institute (CLSI) guidelines M07-A8, M24-A or M11-A7 as appropriate. The inoculum was resuspended by vigorous shaking on a vortex mixer for 15 s. The turbidity was then adjusted to McFarland standard 0.5 ([…]). The inoculum was further diluted in the appropriate media for MIC tests to give a final inoculum in each well of 2-8×10^5 CFU/ml. MICs were tested in the appropriate broth in accordance with the appropriate CLSI guidelines.
(§2) A stock solution of each compound was prepared at a concentration of 1.28 g/L in DMSO. The stock was further diluted in the appropriate media to give a top starting concentration of 128 mg/L in the assay. 100 μL of the appropriate media, as per CLSI guidelines, was dispensed into each well in columns 2-12. 200 μL of the each compound solution (at 256 mg/L) was dispensed into each well in column 1. 100 μL aliquots were pipetted from column 1 wells and dispensed into column 2 with a multichannel pipette (±2% coefficient of variation) thus diluting two-fold. 100 μL samples were then pipetted from column 2 wells and dispensed into column 3. The process was repeated through to column 10. The final 100 μL of diluted drug from column 10 was then discarded. Row 11 acted as a positive control (no compound, but organisms added), Row 12 acted as a negative control (no compound, and no organisms added).
(§3) 100 μL of the appropriate inoculum suspension in the appropriate media, as per CLSI guidelines, was added to the appropriate wells. […] All plates were incubated in the dark under aerobic or anaerobic conditions at 30-37° C. for 24-48 hours, according to the appropriate CLSI guideline. Plates were read visually 24-48 hours post inoculation. Endpoints of 100% inhibition were determined (CLSI interpretation endpoints following visual examination).
(§4) MIC50, MIC80, and 100% inhibition results are reported below in μg/mL in the following Tables, indicating each compound tested against a given species and strain: […]

[2] = system: Enterococcus faecalis ATCC29212; conditions: Enterococcus faecalis ATCC29212; for MIC: read-out: 100% inhibition; for MIC50: read-out: MIC50 (50%); for MIC80: read-out: MIC80 (80%)
Protocol: as §1, §2, §3, §4

[3] = system: Enterococcus faecium ATCC700221; conditions: Enterococcus faecium ATCC700221; for MIC: read-out: 100% inhibition; for MIC50: read-out: MIC50 (50%); for MIC80: read-out: MIC80 (80%)
Protocol: as §1, §2, §3, §4

[4] = system: Staphylococcus aureus ATCC43300; conditions: Staphylococcus aureus ATCC43300; for MIC: read-out: 100% inhibition; for MIC50: read-out: MIC50 (50%); for MIC80: read-out: MIC80 (80%)
Protocol: as §1, §2, §3, §4

[5] = system: Staphylococcus aureus AUR131 007035; conditions: AUR131007035, Staphylococcus aureus AUR131 007035; for MIC: read-out: 100% inhibition; for MIC50: read-out: MIC50 (50%); for MIC80: read-out: MIC80 (80%)
Protocol: as §1, §2, §3, §4

[6] = system: Staphylococcus aureus AUR58 7005; conditions: AUR587005, Staphylococcus aureus AUR58 7005; for MIC: read-out: 100% inhibition; for MIC50: read-out: MIC50 (50%); for MIC80: read-out: MIC80 (80%)
Protocol: as §1, §2, §3, §4

[7] = system: Staphylococcus aureus AUR59 7005; conditions: AUR597005, Staphylococcus aureus AUR59 7005; for MIC: read-out: 100% inhibition; for MIC50: read-out: MIC50 (50%); for MIC80: read-out: MIC80 (80%)
Protocol: as §1, §2, §3, §4

[8] = system: Staphylococcus aureus AUR60 7005; conditions: AUR607005, Staphylococcus aureus AUR60 7005; for MIC: read-out: 100% inhibition; for MIC50: read-out: MIC50 (50%); for MIC80: read-out: MIC80 (80%)
Protocol: as §1, §2, §3, §4

[9] = system: Staphylococcus aureus EUP MRSA002; conditions: EUPMRSA002, Staphylococcus aureus EUP MRSA002; for MIC: read-out: 100% inhibition; for MIC50: read-out: MIC50 (50%); for MIC80: read-out: MIC80 (80%)
Protocol: as §1, §2, §3, §4

[10] = system: Staphylococcus aureus EUP MRSA004; conditions: EUPMRSA004, Staphylococcus aureus EUP MRSA004; for MIC: read-out: 100% inhibition; for MIC50: read-out: MIC50 (50%); for MIC80: read-out: MIC80 (80%)
Protocol: as §1, §2, §3, §4

[11] = system: Staphylococcus aureus EUP SAU040; conditions: EUPSAU040, Staphylococcus aureus EUP SAU040; for MIC: read-out: 100% inhibition; for MIC50: read-out: MIC50 (50%); for MIC80: read-out: MIC80 (80%)
Protocol: as §1, §2, §3, §4

[12] = system: Staphylococcus aureus NRS1 (ATCC700699); conditions: Staphylococcus aureus NRS1 (ATCC700699); for MIC: read-out: 100% inhibition; for MIC50: read-out: MIC50 (50%); for MIC80: read-out: MIC80 (80%)
Protocol: as §1, §2, §3, §4

[13] = system: Staphylococcus aureus NRS2 (ATCC700698); conditions: Staphylococcus aureus NRS2 (ATCC700698); for MIC: read-out: 100% inhibition; for MIC50: read-out: MIC50 (50%); for MIC80: read-out: MIC80 (80%)
Protocol: as §1, §2, §3, §4

[14] = system: Staphylococcus aureus NRS382; conditions: Staphylococcus aureus NRS382; for MIC: read-out: 100% inhibition; for MIC50: read-out: MIC50 (50%); for MIC80: read-out: MIC80 (80%)
Protocol: as §1, §2, §3, §4

[15] = system: Staphylococcus aureus NRS384; conditions: Staphylococcus aureus NRS384; for MIC: read-out: 100% inhibition; for MIC50: read-out: MIC50 (50%); for MIC80: read-out: MIC80 (80%)
Protocol: as §1, §2, §3, §4

[16] = system: Staphylococcus epidermidis NRS122; conditions: Staphylococcus epidermidis NRS122; for MIC: read-out: 100% inhibition; for MIC50: read-out: MIC50 (50%); for MIC80: read-out: MIC80 (80%)
Protocol: as §1, §2, §3, §4

[17] = system: Staphylococcus epidermidis NRS7; conditions: Staphylococcus epidermidis NRS7; for MIC: read-out: 100% inhibition; for MIC50: read-out: MIC50 (50%); for MIC80: read-out: MIC80 (80%)
Protocol: as §1, §2, §3, §4

## CC(C)c1cc(Cl)ccc1-c1cc(C(=O)O)sc1-c1ccc(Cl)cc1C(C)C [DNM0566, 4,5-Bis(4-chloro-2-isopropylphenyl)thiophene-2-carboxylic acid]
[1]
  MIC: ≤ 0.25 µg/mL
  MIC50: ≤ 0.25 µg/mL
  MIC80: ≤ 0.25 µg/mL
[2]
  MIC: 0.5 µg/mL (≈ 1.15 µM)
  MIC50: 0.5 µg/mL (≈ 1.15 µM)
  MIC80: 0.5 µg/mL (≈ 1.15 µM)
[3]
  MIC: 0.5 µg/mL (≈ 1.15 µM)
  MIC50: 0.25 µg/mL (≈ 0.577 µM)
  MIC80: 0.25 µg/mL (≈ 0.577 µM)
[4]
  MIC: ≤ 0.25 µg/mL
  MIC50: ≤ 0.25 µg/mL
  MIC80: ≤ 0.25 µg/mL
[5]
  MIC: ≤ 0.25 µg/mL
  MIC50: ≤ 0.25 µg/mL
  MIC80: ≤ 0.25 µg/mL
[6]
  MIC: 1 µg/mL (≈ 2.31 µM)
  MIC50: 1 µg/mL (≈ 2.31 µM)
  MIC80: 1 µg/mL (≈ 2.31 µM)
[7]
  MIC: 0.5 µg/mL (≈ 1.15 µM)
  MIC50: 0.25 µg/mL (≈ 0.577 µM)
  MIC80: 0.25 µg/mL (≈ 0.577 µM)
[8]
  MIC: 0.5 µg/mL (≈ 1.15 µM)
  MIC50: 0.5 µg/mL (≈ 1.15 µM)
  MIC80: 0.5 µg/mL (≈ 1.15 µM)
[9]
  MIC: ≤ 0.25 µg/mL
  MIC50: ≤ 0.25 µg/mL
  MIC80: ≤ 0.25 µg/mL
[10]
  MIC: ≤ 0.25 µg/mL
  MIC50: ≤ 0.25 µg/mL
  MIC80: ≤ 0.25 µg/mL
[11]
  MIC: 0.5 µg/mL (≈ 1.15 µM)
  MIC50: 0.5 µg/mL (≈ 1.15 µM)
  MIC80: 0.5 µg/mL (≈ 1.15 µM)
[12]
  MIC: ≤ 0.25 µg/mL
  MIC50: ≤ 0.25 µg/mL
  MIC80: ≤ 0.25 µg/mL
[13]
  MIC: 0.5 µg/mL (≈ 1.15 µM)
  MIC50: 0.25 µg/mL (≈ 0.577 µM)
  MIC80: 0.5 µg/mL (≈ 1.15 µM)
[14]
  MIC: 0.5 µg/mL (≈ 1.15 µM)
  MIC50: 0.5 µg/mL (≈ 1.15 µM)
  MIC80: 0.5 µg/mL (≈ 1.15 µM)
[15]
  MIC: 0.5 µg/mL (≈ 1.15 µM)
  MIC50: 0.5 µg/mL (≈ 1.15 µM)
  MIC80: 0.5 µg/mL (≈ 1.15 µM)
[16]
  MIC: 2 µg/mL (≈ 4.61 µM)
  MIC50: 1 µg/mL (≈ 2.31 µM)
  MIC80: 2 µg/mL (≈ 4.61 µM)
[17]
  MIC: 1 µg/mL (≈ 2.31 µM)
  MIC50: 1 µg/mL (≈ 2.31 µM)
  MIC80: 1 µg/mL (≈ 2.31 µM)

## Clc1ccc(Cc2sc(-c3nnn[nH]3)cc2-c2cccc(CC3CCCC3)c2)cc1 [DNM0610, 5-(5-(4-Chlorobenzyl)-4-(3-(cyclopentylmethyl)phenyl)thiophen-2-yl)-1H-tetrazole]
[1]
  MIC: 0.5 µg/mL (≈ 1.15 µM)
  MIC50: 0.5 µg/mL (≈ 1.15 µM)
  MIC80: 0.5 µg/mL (≈ 1.15 µM)
[2]
  MIC: 1 µg/mL (≈ 2.3 µM)
  MIC50: 1 µg/mL (≈ 2.3 µM)
  MIC80: 1 µg/mL (≈ 2.3 µM)
[3]
  MIC: 0.5 µg/mL (≈ 1.15 µM)
  MIC50: 0.5 µg/mL (≈ 1.15 µM)
  MIC80: 0.5 µg/mL (≈ 1.15 µM)
[4]
  MIC: 0.5 µg/mL (≈ 1.15 µM)
  MIC50: 0.5 µg/mL (≈ 1.15 µM)
  MIC80: 0.5 µg/mL (≈ 1.15 µM)
[5]
  MIC: 0.5 µg/mL (≈ 1.15 µM)
  MIC50: 0.5 µg/mL (≈ 1.15 µM)
  MIC80: 0.5 µg/mL (≈ 1.15 µM)
[6]
  MIC: 2 µg/mL (≈ 4.6 µM)
  MIC50: 1 µg/mL (≈ 2.3 µM)
  MIC80: 2 µg/mL (≈ 4.6 µM)
[7]
  MIC: 0.5 µg/mL (≈ 1.15 µM)
  MIC50: 0.5 µg/mL (≈ 1.15 µM)
  MIC80: 0.5 µg/mL (≈ 1.15 µM)
[8]
  MIC: 0.5 µg/mL (≈ 1.15 µM)
  MIC50: 0.5 µg/mL (≈ 1.15 µM)
  MIC80: 0.5 µg/mL (≈ 1.15 µM)
[9]
  MIC: 0.5 µg/mL (≈ 1.15 µM)
  MIC50: 0.5 µg/mL (≈ 1.15 µM)
  MIC80: 0.5 µg/mL (≈ 1.15 µM)
[10]
  MIC: ≤ 0.25 µg/mL
  MIC50: ≤ 0.25 µg/mL
  MIC80: ≤ 0.25 µg/mL
[11]
  MIC: 0.5 µg/mL (≈ 1.15 µM)
  MIC50: 0.5 µg/mL (≈ 1.15 µM)
  MIC80: 0.5 µg/mL (≈ 1.15 µM)
[12]
  MIC: ≤ 0.25 µg/mL
  MIC50: ≤ 0.25 µg/mL
  MIC80: ≤ 0.25 µg/mL
[13]
  MIC: 0.5 µg/mL (≈ 1.15 µM)
  MIC50: 0.5 µg/mL (≈ 1.15 µM)
  MIC80: 0.5 µg/mL (≈ 1.15 µM)
[14]
  MIC: 0.5 µg/mL (≈ 1.15 µM)
  MIC50: 0.5 µg/mL (≈ 1.15 µM)
  MIC80: 0.5 µg/mL (≈ 1.15 µM)
[15]
  MIC: ≤ 0.25 µg/mL
  MIC50: ≤ 0.25 µg/mL
  MIC80: ≤ 0.25 µg/mL
[16]
  MIC: 16 µg/mL (≈ 36.8 µM)
  MIC50: 4 µg/mL (≈ 9.2 µM)
  MIC80: 8 µg/mL (≈ 18.4 µM)
[17]
  MIC: 2 µg/mL (≈ 4.6 µM)
  MIC50: 1 µg/mL (≈ 2.3 µM)
  MIC80: 1 µg/mL (≈ 2.3 µM)
